This is an account of results in PMC5447021, “TNF Lectin-Like Domain Restores Epithelial Sodium Channel Function in Frameshift Mutants Associated with Pseudohypoaldosteronism Type 1B” (Frontiers in Immunology, 2017).

What is called EC50 is the concentration that produces a half-maximal response.

Structures are written as SMILES.

Assay [1] concerns αE272fs (co-expressed with βγ-ENaC). Description: Whole-cell patch clamp, αE272fs + WT βγ. It counts as cell-based, human. Particulars: read-out: EC50, solnatide, HEK-293, whole-cell, -100 mV, n = 5, p < 0.001 vs WT. Here is the method:
Point mutations of α-, β-, γ- and δ-hENaC and PHA1B frameshift mutations of α-hENaC were prepared with the QuikChange Lightning Site-Directed Mutagenesis Kit (Agilent Technologies, CA, USA). Mutagenic primers were designed individually with the Primer Design Program provided on the producer’s website or for the frameshift mutations the same base changes as reported in patients (see Table 2) were performed. Primers were ordered from Sigma-Aldrich, Vienna, Austria.
HEK-293 cells were transfected 1 day after cell seeding using X-tremeGENE HP DNA transfection reagent (Roche Diagnostics, Mannheim, Germany) according to the manufacturer’s protocol. A set of WT or mutant αβγ- or δβγ-hENaC, or α-, β-, γ-, or δ-hENaC alone was used, and the ratio of DNA to transfection reagent was 1:3. The expression was highest 48–72 h after transfection.
Electrophysiological experiments were performed as described in detail by Shabbir et al. ([16]). […] Currents were recorded with the patch clamp method in the whole-cell mode. The chamber contained 1 ml of the bath solution of the following composition (in mM): 145 NaCl, 2.7 KCl, 1.8 CaCl2, 2 MgCl2, 5.5 glucose, and 10 HEPES, adjusted to pH 7.4 with 1 M NaOH solution. Micropipettes were pulled from thin-walled borosilicate glass capillaries (Harvard Apparatus, Holliston, MA, USA) with a DMZ Zeitz Puller to obtain electrode resistances ranging from 2 to 5 MΩ. […]
Background: In patch-clamp work, channel activity is measured electrically.

The next assay has as its system α-ENaC (WT αβγ-ENaC). To be noted: HEK-293, 5 and 10 min; returns after 1 h; cited from earlier work.

For `C[C@@H]1NC(=O)CNC(=O)[C@H](CCC(=O)O)NC(=O)[C@@H]2CCCN2C(=O)[C@H]([C@@H](C)O)NC(=O)[C@H](CCC(=O)O)NC(=O)[C@H](CCCNC(=N)N)NC(=O)[C@H](CCC(N)=O)NC(=O)CNC(=O)[C@@H](N)CSSC[C@@H](C(=O)O)NC(=O)[C@H](Cc2ccc(O)cc2)NC(=O)[C@H](Cc2c[nH]c3ccccc23)NC(=O)[C@@H]2CCCN2C(=O)[C@H](CCCCN)NC(=O)[C@H](C)NC(=O)[C@H](CCC(=O)O)NC1=O` [solnatide, L-cysteine, L-cysteinylglycyl-L-glutaminyl-L-arginyl-L-α-glutamyl-L-threonyl-L-prolyl-L-α-glutamylglycyl-L-alanyl-L-α-glutamyl-L-alanyl-L-lysyl-L-prolyl-L-tryptophyl-L-tyrosyl-, cyclic (1→17)-disulfide], the EC50 in assay [1] is 75.6 ± 5.4 nM. Besides, in the assay on α-ENaC (WT αβγ-ENaC), the “Membrane abundance, solnatide” value is given as “significant statistically”.
